Experiment: Stability test of paclitaxel according to varying pH values (HPLC residual percentage)
Type: physicochemical
Details: for Initial residual percentage (0 hour) / Residual percentage after 24 hours / Residual percentage after 48 hours: 40° C.

residual percentage (around pH 5, for 48 hours): ≥ 99%
Initial residual percentage (0 hour) (pH 3, McIlvaine buffer): 100%
Residual percentage after 24 hours (pH 3, McIlvaine buffer): 99.239%
Residual percentage after 48 hours (pH 3, McIlvaine buffer): 97.509%
Initial residual percentage (0 hour) (pH 4, McIlvaine buffer): 100%
Residual percentage after 24 hours (pH 4, McIlvaine buffer): 99.025%
Residual percentage after 48 hours (pH 4, McIlvaine buffer): 98.221%
stability of paclitaxel with the passage of time (pH 4˜6): stable
residual percentage (pH 4˜6, for 48 hours): ≥ 98%
Initial residual percentage (0 hour) (pH 5, McIlvaine buffer): 100%
Residual percentage after 24 hours (pH 5, McIlvaine buffer): 99.414%
Residual percentage after 48 hours (pH 5, McIlvaine buffer): 99.292%
Initial residual percentage (0 hour) (pH 6, McIlvaine buffer): 100%
Residual percentage after 24 hours (pH 6, McIlvaine buffer): 98.765%
Residual percentage after 48 hours (pH 6, McIlvaine buffer): 98.183%
Initial residual percentage (0 hour) (pH 7, McIlvaine buffer): 100%
Residual percentage after 24 hours (pH 7, McIlvaine buffer): 96.109%
Residual percentage after 48 hours (pH 7, McIlvaine buffer): 94.344%
Initial residual percentage (0 hour) (pH 8, McIlvaine buffer): 100%
Residual percentage after 24 hours (pH 8, McIlvaine buffer): 77.297%
Residual percentage after 48 hours (pH 8, McIlvaine buffer): 57.38%
SMILES: CC(=O)O[C@H]1C(=O)[C@@]2(C)[C@H]([C@H](OC(=O)c3ccccc3)[C@]3(O)C[C@H](OC(=O)[C@H](O)[C@@H](NC(=O)c4ccccc4)c4ccccc4)C(C)=C1C3(C)C)[C@]1(OC(C)=O)CO[C@@H]1C[C@@H]2O [paclitaxel]

From patent publication US20080146651A1, “Injectable Composition for the Treatment of Cancers” (priority 2004, published 2008)
